Assay results reported in patent US4921850A, “3-propenylcephem derivative” (Eisai Co., Ltd., priority 1986, dated 1990).
Values after ≈ are worked out from the molar mass of the structure shown. Read-outs that look alike come from different tables or passages of the source.

Columns and labels:
Experiment in all cases: Anti-bacterial activity (MIC), agar dilution
Type in all cases: cell-based
[1] = tested on: Staph. aureus 209-P
Description: (§1) MIC (μg/ml) were determined by an agar dilution method [Chemotherapy (Japan), 29, 76-79, 1981]. Overnight cultures of the bacterial strains in Mueller-Hinton broth were diluted to final concentration of about 10^6 CFU/ml, and 5 μl of each bacterial suspension was spotted onto Mueller-Hinton agar plates that contained twofold serial dilutions of antibiotics. MICs were measured after incubation for 18 hours at 37° C.

[2] = tested on: Pseud. aeruginosa EP-01
Description: as §1

[3] = tested on: Morganella morganii EP-14; details: 37° C.
Description: as §1

[4] = tested on: Kleb. pneumoniae EK-6; details: Kleb. pneumoniae EK-6, agar dilution, about 10^6 CFU/ml, 18 hours, 37° C.
Description: as §1

[5] = tested on: Ser. marcescens ES-75
Description: as §1

[6] = tested on: Escher. coli NIHJ
Description: as §1

[7] = Staph. aureus 209-P, agar dilution, about 10^6 CFU/ml, 18 hours, 37° C.
[8] = Pseudomonas aeruginosa, EP01, 18 h, Pseud. aeruginosa EP-01, agar dilution, about 10^6 CFU/ml, 18 hours, 37° C., read-out: MIC
[9] = Ser. marcescens ES-75, agar dilution, about 10^6 CFU/ml, 18 hours, 37° C.
[10] = Escherichia coli, 18 h, Escher. coli NIHJ, agar dilution, about 10^6 CFU/ml, 18 hours, 37° C., read-out: MIC
[11] = Pseud. aeruginosa EP-01, agar dilution, about 10^6 CFU/ml, 18 hours, 37° C.
[12] = Escher. coli NIHJ, agar dilution, about 10^6 CFU/ml, 18 hours, 37° C.
[13] = Staphylococcus aureus, 209P, 18 h, Staph. aureus 209-P, agar dilution, about 10^6 CFU/ml, 18 hours, 37° C., read-out: MIC
[14] = Morganella morganii, EP14, 18 h, about 10^6 CFU/ml, read-out: MIC
[15] = Klebsiella pneumoniae, EK6, 18 h, read-out: MIC
[16] = Serratia marcescens, ES75, 18 h, Ser. marcescens ES-75, agar dilution, about 10^6 CFU/ml, 18 hours, 37° C., read-out: MIC
[17] = Staphylococcus aureus, 209P, 18 h
[18] = Serratia marcescens, ES75, 18 h

| SMILES | MIC [2, 8] | MIC [6, 10] | MIC [2, 11] | MIC [6, 12] | MIC [1, 13] | MIC [3, 14] | MIC [4, 15] | MIC [5, 16] | MIC [1, 7] | MIC ([3]; about 10^6 CFU/ml, 18 hours) | MIC [4] | MIC [5, 9] | other results |
| --- | --- | --- | --- | --- | --- | --- | --- | --- | --- | --- | --- | --- | --- |
| NC(=O)C1CC[N+](C/C=C/C2=C(C(=O)[O-])N3C(=O)[C@@H](NC(=O)/C(=N\OCF)c4nsc(N)n4)[C@H]3SC2)(CCO)CC1 (single isomer, unassigned) [Example 2-2, 7β-[2-(5-Amino-1,2,4-thiadiazol-3-yl)-(Z)-2-fluoromethoxyiminoacetamido]-3-[(E)-3-[1-(2-hydroxyethyl)-4-carbamoyl-1-piperidinio]-1-propen-1-yl]-3-cephem-4-carboxylate] | 1.56 µg/mL (≈ 2.55 µM) | ≤ 0.025 µg/mL |  |  |  |  |  |  | 0.4 µg/mL (≈ 0.653 µM) | ≤ 0.025 µg/mL | ≤ 0.025 µg/mL | ≤ 0.025 µg/mL |  |
| C[N+]1(C/C=C/C2=C(C(=O)[O-])N3C(=O)[C@@H](NC(=O)/C(=N\OCF)c4nsc(N)n4)[C@H]3SC2)C[C@H](O)C[C@@H]1CO (single isomer, unassigned) [Example 6-2, 7β-[2-(5-Amino-1,2,4-thiadiazol-3-yl)-(Z)-2-fluoromethoxyiminoacetamido]-3-[(E)-3-(4R-hydroxy-2R-hydroxymethyl-1-methyl-1-pyrrolidinio)-1-propen-1-yl]-3-cephem-4-carboxylate] |  |  | 0.8 µg/mL (≈ 1.4 µM) | ≤ 0.025 µg/mL |  |  |  |  | 0.1 µg/mL (≈ 0.175 µM) | ≤ 0.025 µg/mL | ≤ 0.025 µg/mL | ≤ 0.025 µg/mL |  |
| Nc1nc(/C(=N/OCF)C(=O)N[C@@H]2C(=O)N3C(C(=O)[O-])=C(/C=C/C[N+]4(CCO)C[C@H](O)C[C@H]4CO)CS[C@H]23)ns1 (single isomer, unassigned) [Example 7-1, 7β-[2-(5-Amino-1,2,4-thiadiazol-3-yl)-(Z)-2-fluoromethoxyiminoacetamido]-3-[(E)-3-[4R-hydroxy-1-(2-hydroxyethyl)-2S-hydroxymethyl-1-pyrrolidinio]-1-propen-1-yl]-3-cephem-4-carboxylate] | 0.8 µg/mL (≈ 1.33 µM) | ≤ 0.025 µg/mL |  |  | 0.2 µg/mL (≈ 0.332 µM) | ≤ 0.025 µg/mL | ≤ 0.025 µg/mL | ≤ 0.025 µg/mL |  |  |  |  |  |
| CC(C(N)=O)[N+]1(C/C=C/C2=C(C(=O)[O-])N3C(=O)[C@@H](NC(=O)/C(=N\OCF)c4nsc(N)n4)[C@H]3SC2)CCCC1 (single isomer, unassigned) [Example 13-2] |  |  | 1.56 µg/mL (≈ 2.68 µM) | ≤ 0.025 µg/mL |  |  |  |  | 0.2 µg/mL (≈ 0.343 µM) | 0.05 µg/mL (≈ 0.0858 µM) | ≤ 0.025 µg/mL | 0.05 µg/mL (≈ 0.0858 µM) |  |
| CN1CCC[N+]1(C)C/C=C/C1=C(C(=O)[O-])N2C(=O)[C@@H](NC(=O)/C(=N\OCF)c3nsc(N)n3)[C@H]2SC1 (single isomer, unassigned) [Example 122-A, 7β-[2-(5-Amino-1,2,4-thiadiazol-3-yl)-(Z)-2-fluoromethoxyiminoacetamido]-3-[(E)-3-(1,2-dimethyl-1-pyrazolidinio)-1-propen-1-yl]-3-cephem-4-carboxylate] | 0.8 µg/mL (≈ 1.48 µM) | ≤ 0.025 µg/mL |  |  | 0.2 µg/mL (≈ 0.37 µM) | ≤ 0.025 µg/mL | ≤ 0.025 µg/mL | ≤ 0.025 µg/mL |  |  |  |  |  |
| CN1CCC[N+]1(C)C/C=C/C1=C(C(=O)[O-])N2C(=O)[C@@H](NC(=O)/C(=N\OCF)c3nsc(N)n3)[C@H]2SC1 (single isomer, unassigned) [Example 122-B, 7β-[2-(5-Amino-1,2,4-thiadiazol-3-yl)-(Z)-2-fluoromethoxyiminoacetamido]-3-[(E)-3-(1,2-dimethyl-1-pyrazolidinio)-1-propen-1-yl]-3-cephem-4-carboxylate] |  |  | 0.8 µg/mL (≈ 1.48 µM) | ≤ 0.025 µg/mL |  |  |  |  | 0.1 µg/mL (≈ 0.185 µM) | ≤ 0.025 µg/mL | ≤ 0.025 µg/mL | 0.05 µg/mL (≈ 0.0925 µM) |  |
| CN1CCC[N+]1(C)C/C=C/C1=C(C(=O)[O-])N2C(=O)[C@@H](NC(=O)/C(=N\OCC#N)c3nsc(N)n3)[C@H]2SC1 (single isomer, unassigned) [Example 160-A] | 0.8 µg/mL (≈ 1.46 µM) | ≤ 0.025 µg/mL |  |  | 0.1 µg/mL (≈ 0.183 µM) | 0.05 µg/mL (≈ 0.0913 µM) | ≤ 0.025 µg/mL | 0.1 µg/mL (≈ 0.183 µM) |  |  |  |  |  |
| CN1CCC[N+]1(C)C/C=C/C1=C(C(=O)[O-])N2C(=O)[C@@H](NC(=O)/C(=N\OCC#N)c3nsc(N)n3)[C@H]2SC1 (single isomer, unassigned) [Example 160-B] |  |  | 0.8 µg/mL (≈ 1.46 µM) | 0.05 µg/mL (≈ 0.0913 µM) |  |  |  |  | 0.1 µg/mL (≈ 0.183 µM) | 0.05 µg/mL (≈ 0.0913 µM) | 0.05 µg/mL (≈ 0.0913 µM) | 0.2 µg/mL (≈ 0.365 µM) |  |
| CC(C)(O/N=C(\C(=O)N[C@@H]1C(=O)N2C(C(=O)[O-])=C(C[n+]3ccccc3)CS[C@H]12)c1csc(N)n1)C(=O)O [CAZ, Cefatazidime, reference compound] |  | 0.2 µg/mL (≈ 0.366 µM) |  |  |  | 0.1 µg/mL (≈ 0.183 µM) | 0.1 µg/mL (≈ 0.183 µM) |  |  |  |  |  | MIC [1, 17]: 6.25 µg/mL (≈ 11.4 µM); MIC ([2]; Pseudomonas aeruginosa, EP01, 18 h): 1.56 µg/mL (≈ 2.85 µM); MIC [5, 18]: 0.2 µg/mL (≈ 0.366 µM) |
| CN(C)CCn1nnnc1SCC1=C(C(=O)O)N2C(=O)[C@@H](NC(=O)Cc3csc(N)n3)[C@H]2SC1 [CTM, Cefotiam, reference compound] | > 100 µg/mL | 0.1 µg/mL (≈ 0.19 µM) |  |  | 0.2 µg/mL (≈ 0.38 µM) | 0.2 µg/mL (≈ 0.38 µM) | 0.1 µg/mL (≈ 0.19 µM) | 6.25 µg/mL (≈ 11.9 µM) |  |  |  |  |  |
| CC[N+](C)(C/C=C/C1=C(C(=O)[O-])N2C(=O)[C@@H](NC(=O)/C(=N\OCF)c3nsc(N)n3)[C@H]2SC1)CC(N)=O (stereo partly drawn) [Example 1, 7β-[2-(5-Amino-1,2,4-thiadiazol-3-yl)-(Z)-2-fluoromethoxyiminoacetamido]-3-[(E)-3-(carbamoylmethylethylmethylammonio)-1-propen-1-yl]-3-cephem-4-carboxylate] |  |  |  |  |  |  |  |  |  |  |  |  | MIC [1, 17]: 0.2 µg/mL (≈ 0.359 µM); MIC ([2]; Pseudomonas aeruginosa, EP01, Pseud. aeruginosa EP-01, agar dilution, about 10^6 CFU/ml, 18 hours, 37° C., read-out: MIC): 0.8 µg/mL (≈ 1.44 µM); MIC ([3]; EP14, about 10^6 CFU/ml, 18 hours, read-out: MIC): ≤ 0.025 µg/mL; MIC ([4]; Klebsiella pneumoniae, EK6, read-out: MIC): ≤ 0.025 µg/mL; MIC [5, 18]: 0.1 µg/mL (≈ 0.18 µM); MIC ([6]; Escherichia coli, 18 h): ≤ 0.025 µg/mL |
| CC(O)C[N+](C)(C)C/C=C/C1=C(C(=O)[O-])N2C(=O)[C@@H](NC(=O)/C(=N\OCF)c3nsc(N)n3)[C@H]2SC1 (stereo partly drawn) [Example 4, 7β-[2-(5-Amino-1,2,4-thiadiazol-3-yl)-(Z)-2-fluoromethoxyiminoacetamido]-3-[(E)-3-[(2-hydroxypropyl)dimethylammonio]-1-propen-1-yl]-3-cephem-4-carboxylate] | 0.8 µg/mL (≈ 1.47 µM) | 0.05 µg/mL (≈ 0.092 µM) |  |  | 0.4 µg/mL (≈ 0.736 µM) | 0.05 µg/mL (≈ 0.092 µM) | ≤ 0.025 µg/mL | 0.1 µg/mL (≈ 0.184 µM) |  |  |  |  |  |
| C[C@@H](CO)[N+](C)(C)C/C=C/C1=C(C(=O)[O-])N2C(=O)[C@@H](NC(=O)/C(=N\OCC#N)c3nsc(N)n3)[C@H]2SC1 [Example 148] | 1.56 µg/mL (≈ 2.83 µM) |  |  |  | 0.4 µg/mL (≈ 0.726 µM) | 0.1 µg/mL (≈ 0.182 µM) | 0.05 µg/mL (≈ 0.0908 µM) | 0.05 µg/mL (≈ 0.0908 µM) |  |  |  |  |  |

Further lines, with some results ahead:

| MIC [2, 8] | MIC [6, 10] | MIC [2, 11] | MIC [6, 12] | MIC [1, 13] | MIC [3, 14] | MIC [4, 15] | MIC [5, 16] | SMILES | MIC [1, 7] | MIC ([3]; about 10^6 CFU/ml, 18 hours) | MIC [4] | MIC [5, 9] | other results |
| --- | --- | --- | --- | --- | --- | --- | --- | --- | --- | --- | --- | --- | --- |
| 1.56 µg/mL (≈ 2.66 µM) | ≤ 0.025 µg/mL |  |  | 0.2 µg/mL (≈ 0.342 µM) | ≤ 0.025 µg/mL | ≤ 0.025 µg/mL | ≤ 0.025 µg/mL | Nc1nc(/C(=N/OCF)C(=O)N[C@@H]2C(=O)N3C(C(=O)[O-])=C(/C=C/C[N+]4(CC(O)CO)CCCC4)CS[C@H]23)ns1 (single isomer, unassigned) [Example 23-1] |  |  |  |  |  |
|  |  | 1.56 µg/mL (≈ 2.66 µM) | 0.05 µg/mL (≈ 0.0854 µM) |  |  |  |  | Nc1nc(/C(=N/OCF)C(=O)N[C@@H]2C(=O)N3C(C(=O)[O-])=C(/C=C/C[N+]4(CC(O)CO)CCCC4)CS[C@H]23)ns1 (single isomer, unassigned) [Example 23-2] | 0.2 µg/mL (≈ 0.342 µM) | 0.05 µg/mL (≈ 0.0854 µM) | ≤ 0.025 µg/mL | ≤ 0.025 µg/mL |  |
